Data as given in ChEMBL document CHEMBL1201862, “PubChem BioAssay data set” (2004).
The source made the active and inactive calls.

Key:
[1] = Late stage counterscreen for inhibitors of Trypanosoma brucei methionyl tRNA synthetase (MetRS): Luminescence-based cell-based high throughput dose response assay to identify compounds that are cytotoxic to Jurkat human T lymphocyte cells.; type: functional
[2] = target: Voltage-dependent T-type calcium channel subunit alpha-1H (Homo sapiens, UniProt O95180); type: functional;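 also: channel activity triggered by adding a high calcium stimulation buffer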
Estrogen receptor beta = Estrogen receptor beta (Homo sapiens, UniProt Q92731);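 also: recombinant ER-beta bound to coactivator SRC1 peptide in presence of estradiol agonist; inhibitors block coactivator peptide binding and lower the FRET signal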
[3] = target: E3 ubiquitin-protein ligase Mdm2 (Homo sapiens, UniProt Q00987); assay: MDM2-luc reporter signal enhancers, multi-concentration potency testing, MDM2 ubiquitin-protein ligase inhibitor program, whole-cell format, luminescence detection, 384-well microplate (AID 1394); type: functional;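 also: MDM2 E3 inhibitors raise luminescence so EC50 is for signal enhancement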
[4] = target: Luciferin 4-monooxygenase (Photinus pyralis, UniProt P08659); assay: inhibition of purified Photinus pyralis luciferase – biochemical, luminescence, dose response (AID 1891)
[5] = Luminescence Cell-Based Dose Confirmation HTS to Identify Inhibitors of Platelet Dense Granule Release. [Related pubchem assays: 1663 (Primary HTS), 1678 (Summary of Project)]; type: functional
[6] = potency of ADAM10 substrate cleavage blockers – biochemical, QFRET, dose response (AID 743254);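 also: ADAM10 enzyme with the DM2 quenched FRET peptide as substrate; EDANS fluorescence gain as the protease cuts the substrate; inhibitor potency against ADAM10 proteolytic activity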
[7] = target: Disintegrin and metalloproteinase domain-containing protein 17 (Homo sapiens, UniProt P78536); assay: inhibition of ADAM17 substrate cleavage – biochemical, quenched FRET substrate, counter-screen for ADAM10 exosite inhibitor project, dose response (AID 743253)
[8] = luciferase reporter signal suppression in cells – H4 neuroglioma cells, luminescence, dose response (AID 1990); type: functional, cell-based
BJ [9] = assay: BJ-TERT fibroblast viability loss – cell-based, RAS-independent, luminescence, dose response (AID 1933); type: functional; details: Homo sapiens
[10] = Luminescence Cell-Based Dose Response HTS to Identify Inhibitors of 5'UTR Stem-Loop Driven Prion Protein mRNA Translation in H4 Neuroglioblastoma Cells. [Related pubchem assays: 1827 (Project Summary), 1813 (Primary HTS)]; type: functional
[11] = alpha-synuclein stem-loop luciferase translation blockers – H4 neuroglioma cells, luminescence, confirmation (AID 1988); type: functional, cell-based
BJ [12] = assay: cells; type: functional, cell-based; details: Homo sapiens
[13] = Luminescence-based dose response cell-based high throughput screening assay for cytotoxic compounds using the IEC-6 intestinal epithelial cell line. [Related pubchem assays: 1858 (Summary AID.), 1825 (Counterscreen.), 1907 (Confirmation screen.)]; type: functional
BJ [14] = assay: BJ-TERT-LT-ST fibroblast viability loss – cell-based, RAS-independent, luminescence, dose response (AID 1935); type: functional; details: Homo sapiens;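 also: BJ fibroblasts immortalized with TERT plus LT and ST oncogenes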
[15] = DRD fibroblast viability loss – cell-based, non-viral oncogenic, luminescence, dose response (AID 1934); type: functional; details: Homo sapiens
[16] = target: T1, Replicative DNA helicase DnaB (Mycobacterium tuberculosis, UniProt P9WMR3); assay: DnaB intein splicing inhibitors, dose response, biochemical, cell-free fluorescence (AID 449749); type: functional
T1 sequence (P9WMR3 whole entry): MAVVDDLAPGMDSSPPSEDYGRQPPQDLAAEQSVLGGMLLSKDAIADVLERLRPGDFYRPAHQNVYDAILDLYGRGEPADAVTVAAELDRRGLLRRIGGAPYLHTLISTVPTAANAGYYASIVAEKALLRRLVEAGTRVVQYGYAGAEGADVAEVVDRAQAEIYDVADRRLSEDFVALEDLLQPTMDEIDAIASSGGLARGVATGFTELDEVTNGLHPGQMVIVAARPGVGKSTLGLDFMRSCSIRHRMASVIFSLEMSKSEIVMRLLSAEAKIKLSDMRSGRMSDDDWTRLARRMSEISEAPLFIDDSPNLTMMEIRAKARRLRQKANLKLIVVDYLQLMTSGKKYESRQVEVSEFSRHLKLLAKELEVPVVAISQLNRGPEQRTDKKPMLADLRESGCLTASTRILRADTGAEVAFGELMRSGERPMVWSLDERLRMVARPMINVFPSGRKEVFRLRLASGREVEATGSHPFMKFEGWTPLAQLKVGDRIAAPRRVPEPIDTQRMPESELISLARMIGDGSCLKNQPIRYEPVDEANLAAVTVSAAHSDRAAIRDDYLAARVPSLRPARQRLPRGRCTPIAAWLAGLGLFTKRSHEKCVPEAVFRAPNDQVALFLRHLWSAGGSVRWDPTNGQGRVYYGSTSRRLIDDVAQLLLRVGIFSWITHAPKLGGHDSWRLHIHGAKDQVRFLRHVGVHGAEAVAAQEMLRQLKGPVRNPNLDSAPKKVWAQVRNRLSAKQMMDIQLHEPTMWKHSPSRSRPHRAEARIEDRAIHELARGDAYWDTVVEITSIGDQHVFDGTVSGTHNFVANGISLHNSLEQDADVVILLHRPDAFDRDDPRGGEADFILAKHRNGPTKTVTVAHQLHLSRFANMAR

BJ [17] = assay: growth inhibition of engineered Ras-driven BJ cells – cell-based, alamar blue fluorescence, cherrypicked samples, dose response (AID 2631); type: functional; details: Homo sapiens;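 also: confirmatory dose-response assay in RAS-dependent BJ fibroblasts engineered with TERT, LT and ST, with cytotoxicity read by fluorescence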
Protein RecA = target: T2, Protein RecA (Mycobacterium tuberculosis, UniProt P9WHJ3); assay: Fluorescence Cell-Free Homogeneous Dose Retest to Identify Inhibitors of RecA-Intein Splicing Activity. [Related pubchem assays (depositor defined):AID2097, AID2223, AID489010, AID492950]; type: functional
T2 sequence (P9WHJ3 whole entry): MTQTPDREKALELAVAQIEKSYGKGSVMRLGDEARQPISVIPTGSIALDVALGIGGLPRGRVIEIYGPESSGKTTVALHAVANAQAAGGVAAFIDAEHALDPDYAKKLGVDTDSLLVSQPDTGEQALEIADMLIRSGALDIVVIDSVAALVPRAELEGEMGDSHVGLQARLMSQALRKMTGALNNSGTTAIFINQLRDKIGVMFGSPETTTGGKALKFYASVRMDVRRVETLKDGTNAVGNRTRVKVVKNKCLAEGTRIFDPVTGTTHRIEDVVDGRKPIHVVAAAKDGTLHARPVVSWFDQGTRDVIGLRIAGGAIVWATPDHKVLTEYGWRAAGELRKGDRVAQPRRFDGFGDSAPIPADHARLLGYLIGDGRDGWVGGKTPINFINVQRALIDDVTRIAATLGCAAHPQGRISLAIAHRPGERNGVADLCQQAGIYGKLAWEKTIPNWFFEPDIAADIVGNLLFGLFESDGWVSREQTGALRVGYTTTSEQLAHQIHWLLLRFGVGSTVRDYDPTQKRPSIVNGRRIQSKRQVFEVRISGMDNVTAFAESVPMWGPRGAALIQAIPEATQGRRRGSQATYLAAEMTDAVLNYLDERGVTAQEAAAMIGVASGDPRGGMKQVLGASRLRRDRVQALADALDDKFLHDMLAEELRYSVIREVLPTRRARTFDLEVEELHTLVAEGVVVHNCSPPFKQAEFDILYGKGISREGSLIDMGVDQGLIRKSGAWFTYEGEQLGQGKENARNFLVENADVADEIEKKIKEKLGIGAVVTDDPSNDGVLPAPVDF

INS1 = assay: INS-1E survival protection against cytokine death – cell-based, luminescence, retest, dose response (AID 449756); type: functional; details: Rattus norvegicus;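 also: cell death triggered by IL-1 beta plus TNF-alpha plus IFN-gamma mixture; protective hits raise ATP signal compared with cytokine alone wells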
Paired box protein Pax-8 = Paired box protein Pax-8 (Homo sapiens, UniProt Q06710); assay: PAX8 transcriptional activity inhibition in RMG-I – RMG-I cells, luciferase, cherry-pick, dose response (AID 687027); type: functional, cell-based;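 also: luciferase reporter driven by Pax8 target thyroperoxidase promoter measured by SteadyGlo luminescence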
[18] = general cell-killing toxicity readout – plate reader, dry powder samples, cytotoxicity control for PAX8 inhibitor project, dose response (AID 743021); type: functional, cell-based
[19] = target: T3, Methionyl-tRNA synthetase, putative (Trypanosoma brucei brucei, UniProt Q38C91); type: functional, Trypanosoma brucei brucei strain 927/4 GUTat10.1
T3 sequence (Q38C91 whole entry): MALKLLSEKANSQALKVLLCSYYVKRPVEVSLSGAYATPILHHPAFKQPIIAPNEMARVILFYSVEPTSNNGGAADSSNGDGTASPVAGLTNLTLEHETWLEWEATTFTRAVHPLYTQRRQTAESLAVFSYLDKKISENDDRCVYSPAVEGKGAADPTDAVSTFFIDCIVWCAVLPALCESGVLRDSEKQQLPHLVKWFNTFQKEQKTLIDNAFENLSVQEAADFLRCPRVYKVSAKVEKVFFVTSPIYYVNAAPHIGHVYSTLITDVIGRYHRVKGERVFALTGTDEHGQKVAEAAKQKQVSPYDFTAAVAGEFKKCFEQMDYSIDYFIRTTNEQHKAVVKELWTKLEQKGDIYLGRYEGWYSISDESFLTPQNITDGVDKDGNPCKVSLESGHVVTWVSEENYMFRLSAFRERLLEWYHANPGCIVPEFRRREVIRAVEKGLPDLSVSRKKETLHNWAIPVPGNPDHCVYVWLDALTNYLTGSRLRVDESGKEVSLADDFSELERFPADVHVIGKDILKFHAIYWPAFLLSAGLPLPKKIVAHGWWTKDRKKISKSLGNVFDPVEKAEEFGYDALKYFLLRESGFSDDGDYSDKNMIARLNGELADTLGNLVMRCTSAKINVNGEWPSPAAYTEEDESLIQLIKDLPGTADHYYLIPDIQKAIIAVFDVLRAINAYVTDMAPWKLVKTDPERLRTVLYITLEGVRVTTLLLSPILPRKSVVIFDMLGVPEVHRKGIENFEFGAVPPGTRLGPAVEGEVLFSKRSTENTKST

[20] = Counterscreen for inhibitors of Trypanosoma brucei methionyl tRNA synthetase (MetRS): Luminescence-based cell-based high throughput dose response assay to identify compounds that are cytotoxic to Jurkat human T lymphocyte cells.; type: functional
[21] = target: T3, Methionyl-tRNA synthetase, putative; type: functional, Trypanosoma brucei brucei strain 927/4 GUTat10.1; remark: listed apart in the source
[22] = Trypanosoma cruzi growth suppression in host cells – NIH3T3 host cells, beta-gal luminescence, confirmation (AID 2044); type: functional, cell-based;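 also: intracellular parasites grown in NIH/3T3 mouse fibroblasts as host cells; luminescent beta-galactosidase reporter signal from transgenic T. cruzi replicating inside host cells; inhibitors lower the luminescence signal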
[23] = microbe, parasite or virus in culture; type: functional; details: Mycobacterium tuberculosis
[24] = NIH3T3 cell viability loss – ATP luminescence, mouse fibroblasts, counter-screen, dose response (AID 2010); type: functional, cell-based;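 also: cells exposed to compound for about 90 hours before reading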
[25] = THP-1 cell cytotoxicity, dose response, cytotoxicity control for non-replicating M. tuberculosis project (AID 489025); type: functional
[26] = HepG2 cell cytotoxicity, dose response, cytotoxicity control for non-replicating M. tuberculosis project (AID 489018); type: functional; details: Mycobacterium tuberculosis
[27] = Vero E6 cell cytotoxicity, dose response, cytotoxicity control for non-replicating M. tuberculosis project, secondary assay (AID 492998); type: functional, VeroE6; details: Vero C1008
cells = type: functional

Voltage-dependent T-type calcium channel subunit alpha-1H, sequence (O95180 whole entry): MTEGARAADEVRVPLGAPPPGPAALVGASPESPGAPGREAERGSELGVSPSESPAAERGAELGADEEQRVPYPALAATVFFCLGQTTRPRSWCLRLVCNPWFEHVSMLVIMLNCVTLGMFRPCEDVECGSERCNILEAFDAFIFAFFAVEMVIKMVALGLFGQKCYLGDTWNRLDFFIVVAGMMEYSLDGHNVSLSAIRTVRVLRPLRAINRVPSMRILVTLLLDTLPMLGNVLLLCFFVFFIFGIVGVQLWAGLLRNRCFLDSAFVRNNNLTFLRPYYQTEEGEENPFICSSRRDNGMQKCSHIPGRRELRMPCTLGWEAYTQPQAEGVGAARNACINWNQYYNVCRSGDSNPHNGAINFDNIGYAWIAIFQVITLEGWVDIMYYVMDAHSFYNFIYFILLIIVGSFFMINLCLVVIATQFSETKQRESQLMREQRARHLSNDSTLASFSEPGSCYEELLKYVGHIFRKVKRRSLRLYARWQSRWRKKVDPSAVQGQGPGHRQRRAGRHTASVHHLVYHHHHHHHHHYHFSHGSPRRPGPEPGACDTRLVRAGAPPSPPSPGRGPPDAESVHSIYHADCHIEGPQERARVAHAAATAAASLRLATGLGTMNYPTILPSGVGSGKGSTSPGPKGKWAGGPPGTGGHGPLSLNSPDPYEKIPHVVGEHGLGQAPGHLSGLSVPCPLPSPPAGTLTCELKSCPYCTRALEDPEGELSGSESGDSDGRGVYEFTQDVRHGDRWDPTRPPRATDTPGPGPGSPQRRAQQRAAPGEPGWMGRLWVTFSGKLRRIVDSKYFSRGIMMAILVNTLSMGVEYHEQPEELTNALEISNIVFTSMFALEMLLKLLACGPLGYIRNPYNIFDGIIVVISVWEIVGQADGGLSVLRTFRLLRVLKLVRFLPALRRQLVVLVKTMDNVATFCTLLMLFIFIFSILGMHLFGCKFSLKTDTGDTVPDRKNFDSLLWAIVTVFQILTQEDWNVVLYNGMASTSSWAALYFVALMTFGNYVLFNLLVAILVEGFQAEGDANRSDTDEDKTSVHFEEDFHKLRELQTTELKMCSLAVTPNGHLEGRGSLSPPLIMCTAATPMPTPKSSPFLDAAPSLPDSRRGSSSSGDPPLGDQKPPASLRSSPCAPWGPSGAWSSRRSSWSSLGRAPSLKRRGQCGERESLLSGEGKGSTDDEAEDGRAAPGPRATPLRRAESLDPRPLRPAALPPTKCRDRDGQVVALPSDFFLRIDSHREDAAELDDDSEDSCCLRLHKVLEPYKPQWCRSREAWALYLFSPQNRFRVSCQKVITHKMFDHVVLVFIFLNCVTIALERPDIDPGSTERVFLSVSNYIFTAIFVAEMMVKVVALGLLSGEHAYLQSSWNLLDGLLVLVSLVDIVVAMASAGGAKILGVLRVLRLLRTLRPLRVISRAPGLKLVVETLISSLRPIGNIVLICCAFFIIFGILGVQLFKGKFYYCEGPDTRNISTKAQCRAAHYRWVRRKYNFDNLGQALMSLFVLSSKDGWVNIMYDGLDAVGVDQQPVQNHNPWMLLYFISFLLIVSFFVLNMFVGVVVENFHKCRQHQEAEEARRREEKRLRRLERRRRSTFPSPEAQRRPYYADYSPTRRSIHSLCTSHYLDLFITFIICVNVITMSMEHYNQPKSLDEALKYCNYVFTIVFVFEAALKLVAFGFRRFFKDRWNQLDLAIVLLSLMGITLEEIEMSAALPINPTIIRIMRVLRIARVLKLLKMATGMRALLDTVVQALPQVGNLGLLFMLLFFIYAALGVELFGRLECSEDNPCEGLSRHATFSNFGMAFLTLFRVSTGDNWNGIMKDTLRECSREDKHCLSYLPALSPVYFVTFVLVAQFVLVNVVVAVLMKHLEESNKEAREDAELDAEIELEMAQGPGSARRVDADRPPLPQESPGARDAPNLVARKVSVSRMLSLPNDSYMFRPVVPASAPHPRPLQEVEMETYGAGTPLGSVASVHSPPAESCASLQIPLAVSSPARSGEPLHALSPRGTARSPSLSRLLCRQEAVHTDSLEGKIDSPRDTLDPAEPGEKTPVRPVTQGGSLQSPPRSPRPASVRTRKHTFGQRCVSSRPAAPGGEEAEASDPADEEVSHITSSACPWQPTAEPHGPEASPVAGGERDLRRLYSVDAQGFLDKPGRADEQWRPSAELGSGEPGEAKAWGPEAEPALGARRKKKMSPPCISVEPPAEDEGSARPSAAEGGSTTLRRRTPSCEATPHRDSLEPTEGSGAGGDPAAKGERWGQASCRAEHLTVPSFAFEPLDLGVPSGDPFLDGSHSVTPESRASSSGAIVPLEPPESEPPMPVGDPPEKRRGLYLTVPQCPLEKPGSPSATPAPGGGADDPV
E3 ubiquitin-protein ligase Mdm2, sequence (Q00987 whole entry): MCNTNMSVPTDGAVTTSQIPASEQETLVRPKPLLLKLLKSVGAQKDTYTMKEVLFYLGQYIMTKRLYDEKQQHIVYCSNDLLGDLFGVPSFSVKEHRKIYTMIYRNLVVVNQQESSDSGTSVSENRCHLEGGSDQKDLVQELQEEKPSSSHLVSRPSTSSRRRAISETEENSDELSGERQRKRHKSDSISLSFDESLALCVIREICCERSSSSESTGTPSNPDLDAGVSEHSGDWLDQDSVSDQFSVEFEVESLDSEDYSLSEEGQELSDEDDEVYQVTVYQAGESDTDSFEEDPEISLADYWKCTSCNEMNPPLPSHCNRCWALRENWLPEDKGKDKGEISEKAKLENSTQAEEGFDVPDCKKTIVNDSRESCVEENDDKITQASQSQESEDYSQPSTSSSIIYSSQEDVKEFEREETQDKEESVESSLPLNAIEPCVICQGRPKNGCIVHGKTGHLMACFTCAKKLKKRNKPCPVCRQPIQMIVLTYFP
Estrogen receptor beta, sequence (Q92731 whole entry): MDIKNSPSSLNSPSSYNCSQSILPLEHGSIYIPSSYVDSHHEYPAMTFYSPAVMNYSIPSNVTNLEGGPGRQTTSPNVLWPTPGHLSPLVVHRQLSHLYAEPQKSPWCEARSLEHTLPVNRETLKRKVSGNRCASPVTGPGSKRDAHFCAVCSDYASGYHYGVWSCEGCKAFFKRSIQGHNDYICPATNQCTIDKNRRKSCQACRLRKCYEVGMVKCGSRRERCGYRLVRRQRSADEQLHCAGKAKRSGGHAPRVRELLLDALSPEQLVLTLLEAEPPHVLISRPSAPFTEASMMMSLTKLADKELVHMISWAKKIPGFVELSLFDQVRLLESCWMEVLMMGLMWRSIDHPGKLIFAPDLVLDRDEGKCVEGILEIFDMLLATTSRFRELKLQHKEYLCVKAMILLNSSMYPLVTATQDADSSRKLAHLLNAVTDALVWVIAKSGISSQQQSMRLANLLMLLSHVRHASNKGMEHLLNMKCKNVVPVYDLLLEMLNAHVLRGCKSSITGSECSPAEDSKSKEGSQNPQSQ
Paired box protein Pax-8, sequence (Q06710 whole entry): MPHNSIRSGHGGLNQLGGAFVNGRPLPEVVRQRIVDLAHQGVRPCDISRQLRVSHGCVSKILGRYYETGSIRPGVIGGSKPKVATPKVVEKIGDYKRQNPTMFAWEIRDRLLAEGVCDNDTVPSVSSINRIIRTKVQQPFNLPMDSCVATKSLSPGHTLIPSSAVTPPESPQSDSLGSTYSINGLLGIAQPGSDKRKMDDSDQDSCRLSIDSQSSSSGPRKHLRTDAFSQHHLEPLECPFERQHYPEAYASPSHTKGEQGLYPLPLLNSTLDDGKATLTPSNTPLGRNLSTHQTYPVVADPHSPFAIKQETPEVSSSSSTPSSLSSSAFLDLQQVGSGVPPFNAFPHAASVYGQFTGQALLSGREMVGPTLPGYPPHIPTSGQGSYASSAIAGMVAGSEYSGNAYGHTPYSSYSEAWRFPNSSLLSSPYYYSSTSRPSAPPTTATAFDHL
Disintegrin and metalloproteinase domain-containing protein 17, sequence (P78536 whole entry, the tested form may be a part): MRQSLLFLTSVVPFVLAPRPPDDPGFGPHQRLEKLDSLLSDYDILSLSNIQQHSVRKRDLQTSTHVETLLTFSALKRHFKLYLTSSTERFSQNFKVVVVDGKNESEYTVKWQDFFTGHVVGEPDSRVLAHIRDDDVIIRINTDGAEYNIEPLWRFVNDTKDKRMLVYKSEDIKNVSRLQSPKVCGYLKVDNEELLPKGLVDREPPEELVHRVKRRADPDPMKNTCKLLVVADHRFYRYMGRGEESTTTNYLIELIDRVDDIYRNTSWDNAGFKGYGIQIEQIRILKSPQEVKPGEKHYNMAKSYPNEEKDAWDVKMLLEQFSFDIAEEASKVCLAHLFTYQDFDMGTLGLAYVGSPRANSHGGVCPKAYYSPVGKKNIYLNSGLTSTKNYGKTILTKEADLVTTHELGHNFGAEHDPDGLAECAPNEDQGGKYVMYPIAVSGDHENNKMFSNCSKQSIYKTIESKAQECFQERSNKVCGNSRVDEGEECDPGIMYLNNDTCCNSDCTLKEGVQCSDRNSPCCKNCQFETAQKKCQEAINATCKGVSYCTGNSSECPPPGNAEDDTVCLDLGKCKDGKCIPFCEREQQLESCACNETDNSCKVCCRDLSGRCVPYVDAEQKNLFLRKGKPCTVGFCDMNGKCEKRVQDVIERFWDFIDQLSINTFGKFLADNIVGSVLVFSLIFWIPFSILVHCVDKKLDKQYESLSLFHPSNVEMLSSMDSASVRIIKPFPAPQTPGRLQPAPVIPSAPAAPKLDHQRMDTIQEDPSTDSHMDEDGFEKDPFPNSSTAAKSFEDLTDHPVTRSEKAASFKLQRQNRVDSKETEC

CC(C)(C)[C@@H]1C=C(C(=O)NCc2nc3ccccc3[nH]2)O[C@H](OCc2ccc(CO)cc2)C1
IC50 [1]: > 83.3 µM (inactive)

Cc1ccc(C(=O)Nc2ccc3c(c2)OCO3)cc1S(=O)(=O)N1CCCCC1
EC50 [2]: 4.78 µM (active)

O=C(OCC(=O)N1CCCC1)c1cncc(Br)c1
IC50 (Estrogen receptor beta): > 50 µM (not active)

COc1ccc2[nH]c3c(N4CC(C)OC(C)C4)ncnc3c2c1 (centres undefined)
EC50 [3]: 7.39 µM (not active)

Cc1cc(Nc2ccccc2)n(-c2ccc(Br)cc2)n1
EC50 [2]: 2.24 µM (active)

O=C(Cc1ccc(-n2c(=O)c3ccccc3n(Cc3ccccc3Cl)c2=O)cc1)NCC1CCCO1 (centres undefined)
EC50 [3]: 8.14 µM (not active)
EC50 [4]: > 112 µM (not active)
EC50 [5]: > 112 µM (not active)

CC(C)CC(OC(=O)c1cccs1)C(=O)NCc1ccco1 (centres undefined)
IC50 (Estrogen receptor beta): > 50 µM (not active)

CCCCn1c(SCc2nc(N)nc(Nc3ccccc3C)n2)nc2ccccc2c1=O
IC50 [6]: > 69.5 µM (inactive)
IC50 [7]: > 69.5 µM (inactive)

COc1ccc(C2C(O)C(c3c[nH]c4ccccc34)=NN2C(=O)CCl)cc1 (centres undefined)
EC50 [8]: > 30 µM (not active)
EC50 (BJ [9]): 0.622 µM (inconclusive)
EC50 [10]: 11.1 µM (active)
EC50 [11]: 8.2 µM (active)
EC50 (BJ [12]): 2.65 µM (inconclusive)
IC50 [13]: 1.49 µM (active)
EC50 (BJ [14]): 1.13 µM (inconclusive)
EC50 [15]: 1.37 µM (inconclusive)
AC50 [16]: 2.56 µM (active)
EC50 (BJ [17]): 0.443 µM (active)
EC50 (Protein RecA): 0.582 µM (active)
AC50 (INS1): 2.19 µM (active)
AC50 (Paired box protein Pax-8): 0.65 µM (active)
AC50 [18]: 0.954 µM (active)

COc1ccc2[nH]c3nc(SCC(=O)Nc4ccc5c(c4)OCO5)nnc3c2c1
IC50 [19]: 1.33 µM (active)
IC50 [20]: 24.5 µM (inactive)
IC50 [21]: 0.489 µM (active)
IC50 [1]: 36.6 µM (inactive)

O=C(Cn1cnc2ccccc21)Nc1cccc([N+](=O)[O-])c1
IC50 [19]: 3.47 µM (active)
IC50 [20]: 83.1 µM (inactive)
IC50 [21]: 1.76 µM (active)
IC50 [1]: > 83.3 µM (inactive)

CCN(CCNC(=O)CS(=O)(=O)Cc1nc(-c2cccc(OC)c2)oc1C)c1ccccc1
EC50 [2]: 1.49 µM (active)

CN1CC=C(/C=C/c2ccc(-c3ccccc3)cc2)CC1
EC50 [22]: 2.12 µM (active)
CC50 [23]: 8.12 µM (active)
EC50 [24]: 8.86 µM (active)
CC50 [25]: 23.7 µM (active)
CC50 [26]: 12 µM (active)
CC50 [27]: 9.99 µM (active)
IC50 (cells): 26.6 µM (active)

CC(/C=C\C=C\c1ccccc1)=N\NC(=O)c1cncc(Br)c1
CC50 [25]: 35 µM (active)
CC50 [26]: > 20 µM (active)
IC50 (cells): 12 µM (active)
